The target of one test is T1, αvβ5 integrin (Homo sapiens, UniProt P06756+P18084).
T1 construct: chimeras comprising the extracellular domain of αvβ3, αvβ5, α5β1, and αIIbβ3 linked to the Fc domain of either mouse IgG; purchased Celltech plc (supplied, no catalogue number); host or cells: unpurified hybridoma / tissue culture supernatant from secreting cells
Put plainly: ELISA: biotinylated vitronectin binding to captured soluble αvβ5-mFc in the presence of RGD peptides. Particulars: 20 μM peptide; 100% = signal without peptide. An excerpt:
(§1) Four different soluble integrins were supplied by Celltech plc. Soluble forms of αvβ3, αvβ5, α5β1, and αIIbβ3 integrin were generated by constructing chimeras comprising the extracellular domain of αvβ3, αvβ5, α5β1, and αIIbβ3 linked to the Fc domain of either mouse IgG (αvβ3-mFc, αvβ5-mFc, and αIIbβ3-mFc) or human IgG (α5β1-hFc) as described by Stephens et al., Cell Adhes. Commun., 7:377-390 (2000) and Coe et al., J. Biol. Chem., 276:35854-35866 (2001). Since the four soluble integrin chimeras were supplied either as purified proteins (αvβ3-mFc and α5β1-hFc) or as unpurified hybridoma supernatants (αIIbβ3-mFc and αvβ5-mFc), it was necessary to use two types of ELISAs. […] In one type of ELISA (FIGS. 2A and 2B), the immobilized component is a 50 kDa fragment of fibronectin. In the second type of ELISA (FIGS. 2C and 2D), the immobilized component is a goat anti-mFc antibody that is used to capture chimeric proteins so that the RGD binding site of the integrin is maximally exposed. Each three-sided box in FIG. 2 represents a single well of a 96-well plate, and the components are listed in the sequence of their addition to the assay. The immobilized component at the bottom of the well is bound to the well by electrostatic interactions.
To analyze the affinity and selectively of RGD peptides for αIIbβ3 and αvβ5, 96-well ELISA plates were coated with anti-murine Fc antibody at 5 μg/ml in PBS, 100 μl per well and left overnight at 4° C. The plates were washed with PBS using a Denley Wellwash 4 Mk 2. Washing was repeated twice with a 400 μl wash per well. 200 μl/well of blocking buffer was then added for 1 hour followed by a repeat washing with PBS. 100 μl of tissue culture supernatant from cells secreting soluble αIIbβ3-mFc or αvβ5-mFc, diluted 1:2 in conjugate buffer, was added to each well. Plates were incubated with shaking for 1 hour followed by two washes with PBS. 100 μl of an RGD peptide (at concentrations of 200, 20, and 2 μM), followed by either 100 μl of biotinylated fibrinogen (at 1 μg/ml in conjugate buffer) or 100 μl of biotinylated vitronectin (at 2 μg/ml in conjugate buffer) were added to each well and incubated for 2 hours with shaking. After incubation, the plates were washed with PBS as described above. 100 μl of neutravidin-peroxidase was added to each well and the plates were incubated for 30 minutes with shaking, followed by two washes with PBS. 100 μl of TMB substrate was added to each well and the plates were shaken during color development. Plates were read using a plate spectrophotometer at 630 nm.
Two negative and two positive controls were used in both types of ELISAs. For example, the negative controls were wells that contained 50 μl of an active control peptide, integrin, and biotinylated ligand or 50 μl of the active control peptide and 50 μl of buffer. These negative control wells typically develop little to no color. […] These wells typically develop the maximum amount of color.
(§2) FIGS. 3-6 illustrate the percent binding of the vitronectin, fibronectin, or fibrinogen ligand to αvβ5, α5β1, αIIbβ3, or αvβ3 integrin in the presence of RGD peptides (i.e., linear (A), cyclic (B), or 4-[^19F]-fluorobenzoyl cyclic (C)) at different concentrations, with 100% maximum signal being the signal obtained in the absence of the peptide.

The target of the next test is T2, αvβ3 integrin (Homo sapiens, UniProt P05106+P06756).
T2 construct: chimeras comprising the extracellular domain of αvβ3, αvβ5, α5β1, and αIIbβ3 linked to the Fc domain of either mouse IgG; purchased Celltech plc (supplied, no catalogue number)
Put plainly: ELISA: soluble αvβ3-mFc binding to immobilized 50 kDa fibronectin fragment in the presence of RGD peptides. To be noted: 2 μM peptide.
From the text: as §1
The plates were washed with PBS using a Denley Wellwash 4 Mk 2. Washing was repeated twice with a 400 μl wash per well. […] Plates were read using a plate spectrophotometer at 630 nm.
Two negative and two positive controls were used in both types of ELISAs.
as §2
On the technique in general: An ELISA detects its analyte on a solid surface through an enzyme-linked reagent.

Test [1] deals with VUP melanoma cell line. Put plainly: Adhesion assay: [51Cr]-VUP cells to vitronectin. The class given is cell-based. Particulars: 20 μM peptide. The protocol: (§3) RGD peptides were plated at a maximum concentration of 200 μM and a minimum concentration of 2 nM. For each RGD peptide sequence, linear peptides (A), cyclic peptides (B), and 4-[^19F]-fluorobenzoyl cyclic peptides (C) were assayed. Each RGD peptide concentration was performed in quadruplicate and each experiment was repeated twice.
(§4) Plastic 96-well plates (Falcon 3912; Becton Dickinson) were coated with 50 μl substrate (10 μg/ml laminin or 5 μg/ml vitronectin). The plates were incubated at 37° C. in an 8% CO2 atmosphere for 1 hour. Unbound protein was flicked off and the plates were washed with phosphate buffered saline (PBS) and blocked with bovine serum albumin (0.1% w/v BSA)/PBS/0.1% sodium azide) for 1 hour. The plates were then washed with PBS, placed on a bed of ice and 25 μl of peptide was added to the wells.
(§5) Sodium [^51Cr] chromate was purchased from Amersham International, UK. […]
(§6) 25 μl (about 10,000 cells) were added to each quadruplicate well and the plates incubated at 37° C. in an 8% CO2 atmosphere for 1 hour. […] The radioactivity associated with each well was determined in a gamma counter (1261 Multigamma; Wallac, Sweden). Quadruplicate 25 μl samples of labeled cells were counted as 100% input values. To determine non-specific binding, the ability of cells to bind BSA-coated wells was also assessed. […]
(§7) The results were calculated as follows: [formula] […]

The test system of the next test is A375M melanoma cell line. Put plainly: Adhesion assay: [51Cr]-A375M cells to vitronectin. Format: cell-based, human. To be noted: 20 μM peptide. Here is the method: as §3, §4, §5, §6, §7
Test [2] concerns VUP melanoma cell line. Put plainly: Adhesion assay: [51Cr]-VUP cells to laminin. Format: cell-based. To be noted: highest concentration (200 μM). The protocol: as §3, §4
Sodium [^51Cr] chromate was purchased from Amersham International, UK. The solution was made isotonic by the addition of 110 μl 10× Hanks buffered salt solution. 100 μl of this solution (3.7 MBq) was added to 5-10×10^6 cells in 500 μl of serum-containing growth medium. The suspension was incubated at 37° C. for 45 minutes with regular agitation to resuspend the cells. The cells were then washed and spun 3 times with serum-free E4 medium to remove any free [^51Cr]chromium. A trypan blue viability count was performed and the cells were diluted to the necessary volume in serum-free E4 medium (4×10^5 cells/ml).
25 μl (about 10,000 cells) were added to each quadruplicate well and the plates incubated at 37° C. in an 8% CO2 atmosphere for 1 hour. Unbound cells were flicked off and the plates were washed twice with PBS/BSA containing 1 mM CaCl2 and 0.5 mM MgCl2. The plates were dabbed dry and cut into individual wells. The radioactivity associated with each well was determined in a gamma counter (1261 Multigamma; Wallac, Sweden). Quadruplicate 25 μl samples of labeled cells were counted as 100% input values. To determine non-specific binding, the ability of cells to bind BSA-coated wells was also assessed. […]
as §7

T2 sequence (P06756 31-992 limits assumed): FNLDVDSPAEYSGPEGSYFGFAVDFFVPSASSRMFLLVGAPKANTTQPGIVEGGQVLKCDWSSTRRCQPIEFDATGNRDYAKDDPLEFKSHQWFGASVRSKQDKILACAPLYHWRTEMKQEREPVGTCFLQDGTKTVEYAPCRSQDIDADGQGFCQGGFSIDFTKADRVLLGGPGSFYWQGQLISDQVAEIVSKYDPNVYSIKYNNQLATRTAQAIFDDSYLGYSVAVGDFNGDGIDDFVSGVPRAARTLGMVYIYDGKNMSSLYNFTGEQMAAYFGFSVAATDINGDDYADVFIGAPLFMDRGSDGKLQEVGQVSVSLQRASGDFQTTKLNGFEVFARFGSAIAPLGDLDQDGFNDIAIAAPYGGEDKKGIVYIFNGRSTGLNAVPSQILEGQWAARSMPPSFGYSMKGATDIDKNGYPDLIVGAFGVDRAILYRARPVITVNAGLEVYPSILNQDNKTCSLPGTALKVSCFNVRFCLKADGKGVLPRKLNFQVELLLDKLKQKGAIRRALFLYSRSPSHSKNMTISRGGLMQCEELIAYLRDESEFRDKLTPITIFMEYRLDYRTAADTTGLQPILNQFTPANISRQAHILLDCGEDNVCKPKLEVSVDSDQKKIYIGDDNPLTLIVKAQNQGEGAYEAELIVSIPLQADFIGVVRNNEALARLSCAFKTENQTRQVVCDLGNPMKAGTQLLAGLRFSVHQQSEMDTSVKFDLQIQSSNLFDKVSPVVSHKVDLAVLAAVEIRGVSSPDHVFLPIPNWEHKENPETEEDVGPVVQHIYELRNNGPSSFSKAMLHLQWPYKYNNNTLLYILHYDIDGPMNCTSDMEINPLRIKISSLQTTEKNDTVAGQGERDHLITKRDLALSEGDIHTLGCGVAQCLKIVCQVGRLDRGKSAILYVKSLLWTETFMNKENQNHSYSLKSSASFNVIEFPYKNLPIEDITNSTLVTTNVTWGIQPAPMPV
T2 sequence (P05106 27-718 limits assumed): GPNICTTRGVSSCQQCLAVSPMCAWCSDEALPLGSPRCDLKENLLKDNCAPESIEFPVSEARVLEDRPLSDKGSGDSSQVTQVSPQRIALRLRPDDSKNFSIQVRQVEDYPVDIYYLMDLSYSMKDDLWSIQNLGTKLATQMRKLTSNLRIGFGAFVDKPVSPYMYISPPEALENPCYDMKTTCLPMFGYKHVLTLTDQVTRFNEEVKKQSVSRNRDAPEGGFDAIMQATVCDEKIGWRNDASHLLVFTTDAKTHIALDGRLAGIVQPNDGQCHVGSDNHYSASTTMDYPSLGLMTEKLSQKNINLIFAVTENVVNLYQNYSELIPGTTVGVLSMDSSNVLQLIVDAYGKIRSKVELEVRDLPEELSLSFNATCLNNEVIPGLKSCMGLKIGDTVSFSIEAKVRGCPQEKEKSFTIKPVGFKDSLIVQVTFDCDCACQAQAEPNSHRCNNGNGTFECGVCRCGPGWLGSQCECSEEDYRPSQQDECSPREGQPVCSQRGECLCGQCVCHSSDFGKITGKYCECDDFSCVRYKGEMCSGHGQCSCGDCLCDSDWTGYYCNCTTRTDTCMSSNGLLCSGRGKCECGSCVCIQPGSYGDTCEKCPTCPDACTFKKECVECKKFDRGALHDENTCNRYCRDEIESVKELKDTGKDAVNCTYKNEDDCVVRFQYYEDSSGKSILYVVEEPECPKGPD
T1 sequence (P06756 31-992 limits assumed): as the sequence (P06756 31-992 limits assumed) above
T1 sequence (P18084 24-719 limits assumed): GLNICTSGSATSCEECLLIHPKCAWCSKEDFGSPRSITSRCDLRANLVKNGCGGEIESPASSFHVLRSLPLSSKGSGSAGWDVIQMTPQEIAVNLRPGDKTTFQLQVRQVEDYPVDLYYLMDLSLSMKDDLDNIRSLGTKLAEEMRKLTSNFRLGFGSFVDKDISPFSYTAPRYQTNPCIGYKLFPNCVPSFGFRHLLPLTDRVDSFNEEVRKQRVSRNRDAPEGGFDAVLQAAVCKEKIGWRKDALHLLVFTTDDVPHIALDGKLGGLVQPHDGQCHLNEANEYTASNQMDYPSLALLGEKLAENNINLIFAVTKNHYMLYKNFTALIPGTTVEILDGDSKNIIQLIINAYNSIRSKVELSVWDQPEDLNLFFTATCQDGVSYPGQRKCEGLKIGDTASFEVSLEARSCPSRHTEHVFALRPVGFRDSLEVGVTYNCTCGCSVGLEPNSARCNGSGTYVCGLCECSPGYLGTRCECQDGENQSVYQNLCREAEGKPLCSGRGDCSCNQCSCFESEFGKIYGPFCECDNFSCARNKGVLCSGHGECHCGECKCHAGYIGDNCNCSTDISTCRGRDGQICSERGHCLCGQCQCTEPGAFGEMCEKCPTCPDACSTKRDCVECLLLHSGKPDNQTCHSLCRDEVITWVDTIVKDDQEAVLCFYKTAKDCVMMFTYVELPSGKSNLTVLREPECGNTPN

On to RGDY(OMe)K [B7], for which the “vitronectin binding to αvβ5, % of the maximum signal” value at αvβ5 integrin is recorded as 32.8%. For the same substance, the “fibronectin binding to αvβ3, % of the maximum signal” value at αvβ3 integrin stood at 6.6%. Besides, the “adhesion of [51Cr]-VUP cells to vitronectin, normalized to absence of peptide (100%)” value with VUP melanoma cell line [1] was 44.16%±1.71%. In addition, the “adhesion of [51Cr]-A375M cells to vitronectin, normalized to absence of peptide (100%)” value in the test with A375M melanoma cell line was 72.79%±0.04%. Also, the “adhesion of [51Cr]-VUP cells to laminin, normalized to absence of peptide (100%)” value in the test on VUP melanoma cell line [2] is recorded as 46.89%±1.45%.

These data come from patent US20060029544A1, “Receptor-binding cyclic peptides and methods of use” (The Regents of the University of California Office of …, priority 2004, published 2006).
